These results are taken from US20100311714A1, “1H-IMIDAZO[4,5-c]QUINOLINONE COMPOUNDS” (priority 2009, published 2010).

Converted amounts (≈) assume the structure as drawn.

The data set can be described thus: High-throughput equilibrium solubility at pH 6.8. Format: physicochemical. As to conditions: pH 6.8, aqueous buffer, thermodynamic from solid; read-out: HT-Eq Sol/pH 6.8. In short, it runs like this: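 Solubility was measured at pH 6.8 following the cited Zhou et al. (2007) procedure.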
Take `COCCN(C)c1ccc(-n2c(=O)n(C)c3cnc4ccc(-c5cnc6c(ccn6C)c5)cc4c32)c(C)n1` [Example 15.7, 1-{6-[(2-Methoxy-ethyl)-methyl-amino]-2-methyl-pyridin-3-yl}-3-methyl-8-(1-methyl-1H-pyrrolo[2,3-b]pyridin-5-yl)-1,3-dihydro-imidazo[4,5-c]quinolin-2-one]: the solubility thermodynamic turned out to be 4 µg/mL (≈ 7.88 µM).
In the case of `COCCN(C)c1ccc(-n2c(=O)n(C)c3cnc4ccc(-c5cncc(N)c5)cc4c32)c(C)n1` [Example 15.8, 8-(5-Amino-pyridin-3-yl)-1-{6-[(2-methoxy-ethyl)-methyl-amino]-2-methyl-pyridin-3-yl}-3-methyl-1,3-dihydro-imidazo[4,5-c]quinolin-2-one] it was 56 µg/mL (≈ 119 µM).
The figure for `Cc1cc(F)ncc1-n1c(=O)n(C)c2cnc3ccc(-c4cnc(N)c(C(F)(F)F)c4)cc3c21` [Example 16.1, 8-(6-Amino-5-trifluoromethyl-pyridin-3-yl)-1-(6-fluoro-4-methyl-pyridin-3-yl)-3-methyl-1,3-dihydro-imidazo[4,5-c]quinolin-2-one] is 3 µg/mL (≈ 6.4 µM); for `CCNc1cc(-c2ccc3ncc4c(c3c2)n(-c2cnc(F)cc2C)c(=O)n4C)cnc1C` [Example 16.2, 8-(5-Ethylamino-6-methyl-pyridin-3-yl)-1-(6-fluoro-4-methyl-pyridin-3-yl)-3-methyl-1,3-dihydro-imidazo[4,5-c]quinolin-2-one] it is 70 µg/mL (≈ 158 µM).
The figure for `CNc1ncc(-c2ccc3ncc4c(c3c2)n(-c2cnc(F)cc2C)c(=O)n4C)cn1` [Example 16.3, 1-(6-Fluoro-4-methyl-pyridin-3-yl)-3-methyl-8-(2-methylamino-pyrimidin-5-yl)-1,3-dihydro-imidazo[4,5-c]quinolin-2-one] is 27 µg/mL (≈ 65 µM); for `CNc1ccc(-c2ccc3ncc4c(c3c2)n(-c2cnc(F)cc2C)c(=O)n4C)cn1` [Example 16.4, 1-(6-Fluoro-4-methyl-pyridin-3-yl)-3-methyl-8-(6-methylamino-pyridin-3-yl)-1,3-dihydro-imidazo[4,5-c]quinolin-2-one] it is 55 µg/mL (≈ 133 µM); for `Cc1cc(F)ncc1-n1c(=O)n(C)c2cnc3ccc(-c4cnc5c(ccn5C)c4)cc3c21` [Example 16.5, 1-(6-Fluoro-4-methyl-pyridin-3-yl)-3-methyl-8-(1-methyl-1H-pyrrolo[2,3-b]pyridin-5-yl)-1,3-dihydro-imidazo[4,5-c]quinolin-2-one] it is 2 µg/mL (≈ 4.56 µM).
In the case of `CCNc1cc(-c2ccc3ncc4c(c3c2)n(-c2ccc(OC)nc2Cl)c(=O)n4C)cnc1C` [Example 18.1, 1-(2-Chloro-6-methoxy-pyridin-3-yl)-8-(5-ethylamino-6-methyl-pyridin-3-yl)-3-methyl-1,3-dihydro-imidazo[4,5-c]quinolin-2-one], the solubility thermodynamic is 10 µg/mL (≈ 21.1 µM).
Consider `COc1ccc(-n2c(=O)n(C)c3cnc4ccc(-c5cnc(N(C)C)nc5)cc4c32)c(Cl)n1` [Example 18.3, 1-(2-Chloro-6-methoxy-pyridin-3-yl)-8-(2-dimethylamino-pyrimidin-5-yl)-3-methyl-1,3-dihydro-imidazo[4,5-c]quinolin-2-one], for which the solubility thermodynamic stood at 37 µg/mL (≈ 80.1 µM).
The figure for `CNc1ncc(-c2ccc3ncc4c(c3c2)n(-c2ccc(N(C)C)nc2C)c(=O)n4C)cn1` [Example 19.1, 1-(6-Dimethylamino-2-methyl-pyridin-3-yl)-3-methyl-8-(2-methylamino-pyrimidin-5-yl)-1,3-dihydro-imidazo[4,5-c]quinolin-2-one] is 7 µg/mL (≈ 15.9 µM); for `CNc1cc(-c2ccc3ncc4c(c3c2)n(-c2ccc(N(C)C)nc2C)c(=O)n4C)cnc1C` [Example 19.2, 1-(6-Dimethylamino-2-methyl-pyridin-3-yl)-3-methyl-8-(6-methyl-5-methylamino-pyridin-3-yl)-1,3-dihydro-imidazo[4,5-c]quinolin-2-one] it is 34 µg/mL (≈ 75 µM).
